Source: publication PMC8507260, “A2E-induced inflammation and angiogenesis in RPE cells in vitro are modulated by PPAR-α, -β/δ, -γ, and RXR antagonists and by norbixin” (Aging (Albany NY), 2021)
pIC50, pKd: −log10 of the molar value.

Tests used:
RXR-α = biological target: T1, RXR-α (Homo sapiens, UniProt P19793); assay: Competition binding to RXR-α against [3H]9-cis-retinoic acid (Eurofins Cerep); conditions: for pIC50 / pKd: competition with [3H]9-cis-retinoic acid
T1 construct: Eurofins Cerep (contract laboratory that ran the assay)
T1 sequence (P19793 1-462): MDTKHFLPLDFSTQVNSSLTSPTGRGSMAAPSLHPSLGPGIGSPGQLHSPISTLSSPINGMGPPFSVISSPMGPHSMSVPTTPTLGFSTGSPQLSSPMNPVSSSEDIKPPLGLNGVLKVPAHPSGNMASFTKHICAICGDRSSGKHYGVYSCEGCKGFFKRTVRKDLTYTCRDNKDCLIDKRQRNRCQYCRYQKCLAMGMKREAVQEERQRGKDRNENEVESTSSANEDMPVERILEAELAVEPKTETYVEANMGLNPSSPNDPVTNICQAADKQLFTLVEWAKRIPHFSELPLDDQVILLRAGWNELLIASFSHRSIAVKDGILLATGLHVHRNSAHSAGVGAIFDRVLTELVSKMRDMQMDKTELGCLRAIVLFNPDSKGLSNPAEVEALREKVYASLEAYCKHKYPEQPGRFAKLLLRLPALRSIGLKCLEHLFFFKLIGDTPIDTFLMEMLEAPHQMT
Description: To confirm this hypothesis, we tested by competition experiments whether A2E and norbixin could bind to RXR-α. […] In similar transactivation experiments, we tested the activity of norbixin alone or added to A2E on RXR transactivation.
Binding studies of A2E and norbixin to RXR-α and PPAR-α and γ were performed in vitro by an external laboratory (Eurofins Cerep, Celle L’Evescault, France) through competition experiments between A2E or norbixin and [^3H]9-cis-retinoic acid as the natural ligand of RXR-α, [^3H]GW7647 an agonist of PPAR-α and [^3H]Rosiglitazone an agonist of PPAR-γ.

PPAR-α = assay: Transactivation of over-expressed PPAR-α, luciferase reporter in porcine RPE cells; assay type: cell-based, pig; conditions: for transactivation of over-expressed PPAR-α by the compound alone: vs DMSO control, A2E 20 μM, NBX increasing concentrations
Description: First, we evaluated the binding profile of A2E to all three isoforms of PPAR. […] Then the effects of A2E on the endogenous PPAR transactivation in porcine RPE cells were investigated by means of a luciferase assay. […] The level of transactivation of PPAR-α, -β/δ, or -γ isoforms by A2E was determined by co-transfection of porcine RPE cells with a plasmid expressing each of the full-length PPAR isoforms and a plasmid expressing luciferase under the control of the PPAR response element. […]. All usual chemicals, primers, and HX531 were from Sigma (St. Louis, MO, USA). Reagents for cell culture, transfection and quantitative RT-PCR were from Thermo Fisher Scientific (Waltham, MA, USA). RNA extraction NucleoSpin® RNA kit was from Macherey Nagel (Düren, Germany). ECL prime and PVDF membrane were from Amersham GE Healthcare (Buckinghamshire, UK). Primary antibodies against the following proteins were used: GAPDH (Santa Cruz Biotechnology, Inc, Dallas, TX, USA); pAKT, AKT, pERK and ERK (Cell Signaling, Danvers, MA, USA). Secondary antibodies were from Jackson ImmunoResearch (Cambridgeshire, UK). […] Cignal Pathway Reporter Assay Kits were from QIAGEN (Frederick, MD, USA). The Dual-Luciferase Reporter Assay System was purchased from Promega (Madison, WI, USA). pcDNA 3.1 (+)-PPARα and pcDNA 3.1 (+)-PPARβ/δ (pig sequence) were purchased from Genscript (Piscataway, NJ, USA). pCMV6-XL4-PPARγ (human sequence) was purchased from Origene (Rockville, MD, USA).
After one week in culture, cells were trypsinized and transferred to a 96-well plate at a density of 6 × 10^4 cells/cm^2 in DMEM2%FCS. The next day, cells were transfected using the Cignal Reporter Assay Kits for PPAR, RXR, AP-1 and NF-κB, according to the manufacturer’s specifications. To measure the specific activation of PPAR isoforms, cells were also co-transfected with PPAR-α, PPAR-β/δ or PPAR-γ expression vectors. Transfection was performed with Lipofectamine and Plus Reagent in serum-free medium. 3 h after the transfection, the medium was replaced and treatments with the molecules to assay were performed. Luciferase activity was measured the next day using the Dual-Luciferase Reporter Assay System. The measurements were performed with a luminometer (Infinite M1000 from Tecan, Mannedorf, Switzerland). Firefly: Renilla activity ratios were calculated for each condition and ratios from transcription factor-responsive reporter transfections were divided by ratios from negative control transfections to obtain relative luciferase unit, as described by the manufacturer. At least 3 independent transfections were performed in triplicate for each condition.

CCL2 = CCL2 mRNA expression by quantitative RT-PCR in porcine RPE cells; assay type: cell-based
Description: Pig eyes were obtained from a local slaughterhouse and transported to the laboratory in ice-cold Ringer solution. After removal of the anterior segment of the eye, the vitreous and neural retina was separated from the RPE and removed. The eyecup was washed twice with phosphate buffer saline (PBS), filled with trypsin (0.25% in PBS) and incubated at 37°C for 1.5 h. RPE cells were harvested by gently pipetting, centrifuged to remove trypsin and re-suspended in Dulbecco’s Modified Eagle Medium (DMEM) supplemented with 20% (v/v) foetal-calf serum (DMEM20%FCS) and 0.1% gentamycin. Cells were seeded into 60 mm diameter Petri dishes, cultured in an atmosphere of 5% CO2/95% air at 37°C, and supplied with fresh medium after 24 hours and 4 days in vitro. For experiments aimed at measuring mRNA or protein expression in RPE, cells were trypsinized after one week in culture and transferred to 24-well or 6-well plates at a density of 1.5 × 10^5 cells/cm^2 in DMEM2%FCS. Norbixin or agonists were added to the medium 24 h after seeding, and antagonists were added to the medium 24 h later. A2E treatment was performed during 19 h before cellular sample preparation. […]
Total RNA was extracted using the NucleoSpin® RNA kit according to manufacturer’s instructions. […] The relative mRNA expression was calculated using the comparative threshold method (Ct-method) with GAPDH for normalization. […]

| Compound | pIC50 (RXR-α) | pKd (RXR-α) | effect on over-expressed PPAR-α transactivation induced by A2E (PPAR-α; A2E 20 μM + NBX 20 μM) | inhibition of PPAR-α transactivation induced by GW9578 (PPAR-α; GW9578 at 10 nM, NBX 20 μM) | transactivation of over-expressed PPAR-α by the compound alone (PPAR-α) | effect on CCL2 mRNA expression induced by A2E (CCL2; NBX 20 μM + A2E 30 μM) | binding affinity of A2E for RXR-α relative to norbixin (higher) (RXR-α; ratio of KDs) [fold] | effect of the compound alone on CCL2 mRNA expression (CCL2; A2E 30 μM vs DMSO control) |
| --- | --- | --- | --- | --- | --- | --- | --- | --- |
| CC(/C=C/C=C(C)/C=C/C(=O)O)=C\C=C\C=C(C)\C=C\C=C(C)\C=C\C(=O)O (stereo in doubt) [norbixin, 9’-cis-norbixin] | 4.19 | 4.34 | fully abolished | did not inhibit significantly | did not demonstrate any transactivation activity | further increased |  |  |
| CC(C=CC1=C(C)CCCC1(C)C)=CC=CC(C)=Cc1cc(C=CC=C(C)C=CC2=C(C)CCCC2(C)C)cc[n+]1CCO [A2E, N-retinylidene-N-retinylethanolamine] | 5.21 | 5.37 |  |  | induced the transactivation |  | 10 | up-regulated |
